Tests used:
[1] = target: T1, ALK2 R206H (GST-tagged mutant ALK2) (Homo sapiens, UniProt Q04771, R206H); assay: ALK binding assay (LANTHASCREEN TR-FRET competitive binding, displacement of Kinase Tracer 178); details: ALK2 R206H, LANTHASCREEN TR-FRET competitive binding; read-out: Binding Assay (IC50)
T1 construct: purchased Carna Bioscience or ThermoFisher 09-148 or PV6232
T1 sequence (Q04771 21-509 R206H): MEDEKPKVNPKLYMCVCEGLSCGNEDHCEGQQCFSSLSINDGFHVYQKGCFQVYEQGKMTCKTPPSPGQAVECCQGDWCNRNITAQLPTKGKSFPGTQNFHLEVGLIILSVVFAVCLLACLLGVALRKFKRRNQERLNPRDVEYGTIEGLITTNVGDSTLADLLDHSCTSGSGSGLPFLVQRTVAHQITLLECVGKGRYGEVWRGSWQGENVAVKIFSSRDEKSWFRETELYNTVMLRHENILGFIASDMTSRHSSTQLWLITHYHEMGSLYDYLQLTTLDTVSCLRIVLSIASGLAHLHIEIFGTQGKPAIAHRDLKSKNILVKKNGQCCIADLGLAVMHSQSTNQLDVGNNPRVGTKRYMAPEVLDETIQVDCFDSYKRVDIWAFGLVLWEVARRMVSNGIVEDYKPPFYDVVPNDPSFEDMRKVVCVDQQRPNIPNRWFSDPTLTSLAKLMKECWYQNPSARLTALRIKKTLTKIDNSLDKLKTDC

human ALK2 R206H = target: T2, human ALK2 R206H (Homo sapiens, UniProt Q04771, R206H); assay: Cell-based ALK2-R206H cell activity assay (Smad1-Ser463/Ser465 phosphorylation by AlphaLISA in HEK293-ALK2-R206H cells); details: read-out: Cell Line (Cell Assay IC50)
T2 construct: expressed in transfected cells; host or cells: HEK293 (ATCC CRL1573), lentivirus transduction, blasticidin selection
T2 sequence (Q04771 21-509 R206H): T1 sequence (Q04771 21-509 R206H)
How it was run: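 Stable HEK293 cells expressing C-terminally FLAG-tagged human ALK2 R206H (lentiviral, blasticidin-selected) were treated with compounds in 10-point, 3-fold dilutions from 10 μM or 1 μM top, in duplicate. Smad1 Ser463/Ser465 phosphorylation was read by AlphaLISA.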

SMILES | IC50 [1] [nM] | IC50 (human ALK2 R206H) [nM]
CC(C)N1CCC(c2ccc(-c3cc4c(N5CCN(C(=O)OCC(F)(F)F)CC5)ccnn4c3)cc2)CC1 [Compound 430] | < 10 | < 100
CCN1CCC(c2ccc(-c3cc4c(N5CCN(C(=O)C6CCC(C)(O)CC6)CC5)ccnn4c3)cc2)CC1 (stereo not shown) [Compound 431] | < 10 | 100 to 500
CC(C)N1CCC(c2ccc(-c3cc4c(N5CCN(C(=O)[C@H]6CC[C@H](O)CC6)CC5)ccnn4c3)nc2)CC1 [Compound 432] | < 10 | < 100
CC(C)N1CCC[C@@H](c2ccc(-c3cc4c(N5CCN(C(=O)[C@H]6CC[C@H](C#N)CC6)CC5)ccnn4c3)cc2)C1 [Compound 434] | < 10 | < 100
CC(C)N1CCC[C@H](c2ccc(-c3cc4c(N5CCN(C(=O)[C@H]6CC[C@H](C#N)CC6)CC5)ccnn4c3)cc2)C1 [Compound 435] | < 10 | < 100
CC(C)N1CCN(c2ccc(-c3cc4c(N5CCN(C(=O)[C@H]6CC[C@H](C#N)CC6)CC5)ccnn4c3)cc2)CC1 [Compound 436] | < 10 | < 100
CC(C)N1CCC(c2ccc(-c3cc4c(N5CCN(C(=O)[C@H]6CC[C@H](C#N)CC6)CC5)ccnn4c3)nc2)CC1 [Compound 437] | < 10 | < 100
CC(C)N1CC2(CN(c3ccc(-c4cc5c(N6CCN(C(=O)[C@H]7CC[C@H](O)CC7)CC6)ccnn5c4)cc3)C2)C1 [Compound 441] | < 10 | < 100
CC(C)N1CC2(CN(c3ccc(-c4cc5c(N6CCN(C(=O)[C@H]7CC[C@H](C#N)CC7)CC6)ccnn5c4)cc3)C2)C1 [Compound 442] | < 10 | < 100
CCN1CCC(c2ccc(-c3cc4c(N5CCN(C(=O)C6CC(O)(C(F)(F)F)C6)CC5)ccnn4c3)cc2)CC1 (stereo not shown) [Compound 445] | < 10 | < 100
CCN1CCN(c2ccc(-c3cc4c(N5CCN(C(=O)C6(c7cccc(Cl)c7)CC6)CC5)ccnn4c3)cc2)CC1 [Compound 447] | 10 to 50 | > 500
CCOC(=O)N1CCN(c2ccnn3cc(-c4cnc(N5CCN(C(C)C)CC5)cn4)cc23)CC1 [Compound 448, ethyl 4-(6-(5-(4-isopropylpiperazin-1-yl)pyrazin-2-yl)pyrrolo[1,2-b]pyridazin-4-yl)piperazine-1-carboxylate] | < 10 | 100 to 500
O=C(C1CC1)N1CCN(c2ccnn3cc(-c4ccc([C@H]5CCCN5)nc4)cc23)CC1 [Compound 451] | < 10 | < 100
O=C(C1CC1)N1CCN(c2ccnn3cc(-c4ccc(C5CCCN5)cn4)cc23)CC1 (stereo not shown) [Compound 452] | < 10 | < 100
O=C(C1CC1)N1CCN(c2ccnn3cc(-c4ccc(C5CCCN5)cn4)cc23)CC1 (stereo not shown) [Compound 453] | < 10 | < 100
O=C(C1CC1)N1CCN(c2ccnn3cc(-c4ccc(C5CCCN5)cn4)cc23)CC1 (stereo not shown) [Compound 454] | < 10 | 100 to 500
CC(N)(CO)c1ccc(-c2cc3c(N4CCN(C(=O)C5CC5)CC4)ccnn3c2)cc1 (stereo not shown) [Compound 455] | < 10 | < 100
CCNC(=O)N1CCN(c2ccnn3cc(-c4ccc([C@@H]5CCCN5)nc4)cc23)CC1 [Compound 456] | < 10 | 100 to 500
CCNC(=O)N1CCN(c2ccnn3cc(-c4ccc([C@H]5CCCN5)nc4)cc23)CC1 [Compound 457] | < 10 | 100 to 500
C[C@]1(c2ccc(-c3cc4c(N5CCN(C(=O)C6CC6)CC5)ccnn4c3)cc2)CCCN1 [Compound 459] | < 10 | < 100
C[C@@]1(c2ccc(-c3cc4c(N5CCN(C(=O)C6CC6)CC5)ccnn4c3)cc2)CCCN1 [Compound 460] | < 10 | < 100
N[C@@H]1CCN(c2ccc(-c3cc4c(N5CCN(C(=O)C6CC6)CC5)ccnn4c3)cc2)C1 [Compound 462] | < 10 | 100 to 500
CC1(c2ccc(-c3cc4c(N5CCN(C(=O)C6CC6)CC5)ccnn4c3)nc2)CCCN1 (stereo not shown) [Compound 463] | < 10 | < 100
O=C(C1CC1)N1CCN(c2ccnn3cc(-c4ccc(C5COCCN5)cc4)cc23)CC1 (stereo not shown) [Compound 464] | < 10 | < 100
CC(C)NC(=O)N1CCN(c2ccnn3cc(-c4ccc(C5CCCN5)cn4)cc23)CC1 (stereo not shown) [Compound 465] | < 10 | 100 to 500
CC(C)NC(=O)N1CCN(c2ccnn3cc(-c4ccc([C@@H]5CCCN5)cn4)cc23)CC1 [Compound 466] | < 10 | < 100
CC(C)NC(=O)N1CCN(c2ccnn3cc(-c4ccc([C@H]5CCCN5)cn4)cc23)CC1 [Compound 467] | < 10 | 100 to 500

SMILES | IC50 [1] [nM] | IC50 (human ALK2 R206H) [nM]
CCOC(=O)N1CCN(c2ccnn3cc(-c4ccc(C5COCCN5)cc4)cc23)CC1 (stereo not shown) [Compound 468] | < 10 | < 100
CC(C)NC(=O)N1CCN(c2ccnn3cc(-c4cnn([C@@H]5CCCNC5)c4)cc23)CC1 [Compound 469] | < 10 | < 100
CC(C)NC(=O)N1CCN(c2ccnn3cc(-c4cnn([C@H]5CCCNC5)c4)cc23)CC1 [Compound 470] | < 10 | < 100
CC(C)NC(C)(C)c1ccc(-c2cc3c(N4CCN(C(=O)C5CC5)CC4)ccnn3c2)cc1 [Compound 473] | < 10 | < 100
O=C(C1CC1)N1CCN(c2ccnn3cc(-c4ccc(C5(F)CCNCC5)cc4)cc23)CC1 [Compound 474] | < 10 | 100 to 500
O=C(OC1COC1)N1CCN(c2ccnn3cc(-c4ccc(C5CCCN5)cn4)cc23)CC1 (stereo not shown) [Compound 475] | < 10 | < 100
O=C(OC1COC1)N1CCN(c2ccnn3cc(-c4ccc([C@@H]5CCCN5)cn4)cc23)CC1 [Compound 476] | < 10 | < 100
O=C(OC1COC1)N1CCN(c2ccnn3cc(-c4ccc([C@H]5CCCN5)cn4)cc23)CC1 [Compound 477] | < 10 | < 100
CC(C)NC(=O)N1CCN(c2ccnn3cc(-c4ccc(C5COCCN5)cc4)cc23)CC1 (stereo not shown) [Compound 478] | < 10 | < 100
CCOC(=O)N1CCN(c2ccnn3cc(-c4ccc([C@]5(F)CCCNC5)cc4)cc23)CC1 [Compound 479] | < 10 | < 100
CCOC(=O)N1CCN(c2ccnn3cc(-c4ccc([C@@]5(F)CCCNC5)cc4)cc23)CC1 [Compound 480] | < 10 | < 100
N#CC1(c2ccc(-c3cc4c(N5CCN(C(=O)C6CC6)CC5)ccnn4c3)cc2)CCNCC1 [Compound 481] | < 10 | < 100
O=C(C1CC1)N1CCN(c2ccnn3cc(-c4ccc(C56CCN(CC5)CC6)cc4)cc23)CC1 [Compound 482] | < 10 | < 100
CCOC(=O)N1CCN(c2ccnn3cc(-c4ccc(C5(C#N)CCNCC5)cc4)cc23)CC1 [Compound 483] | < 10 | < 100
CC(C)N1CCC[C@H]1c1ccc(-c2cc3c(N4CCN(C(=O)C5CC5)CC4)ccnn3c2)cn1 [Compound 484] | < 10 | < 100
CC(C)N1CC[C@@H](c2ccc(-c3cc4c(N5CCN(C(=O)C6CC6)CC5)ccnn4c3)nc2)C1 [Compound 485] | < 10 | < 100
CC(C)N1CC[C@H](c2ccc(-c3cc4c(N5CCN(C(=O)C6CC6)CC5)ccnn4c3)nc2)C1 [Compound 486] | < 10 | < 100
CC(C)N1CCC[C@@H]1c1ccc(-c2cc3c(N4CCN(C(=O)C5CC5)CC4)ccnn3c2)cn1 [Compound 487] | < 10 | < 100
COC1(c2ccc(-c3cc4c(N5CCN(C(=O)C6CC6)CC5)ccnn4c3)cc2)CCNCC1 [Compound 488] | < 10 | < 100
CO[C@]1(c2ccc(-c3cc4c(N5CCN(C(=O)C6CC6)CC5)ccnn4c3)cc2)CCCNC1 [Compound 489] | < 10 | < 100
CO[C@@]1(c2ccc(-c3cc4c(N5CCN(C(=O)C6CC6)CC5)ccnn4c3)cc2)CCCNC1 [Compound 490] | < 10 | < 100
COC1(c2ccc(-c3cc4c(N5CCN(C(=O)C6CC6)CC5)ccnn4c3)nc2)CCNCC1 [Compound 491] | < 10 | < 100
CC(C)NC(=O)N1CCN(c2ccnn3cc(-c4ccc(C5(C)CCNCC5)cc4)cc23)CC1 [Compound 492] | < 10 | < 100
CC(C)NC(C)(CO)c1ccc(-c2cc3c(N4CCN(C(=O)C5CC5)CC4)ccnn3c2)cc1 (stereo not shown) [Compound 493] | < 10 | < 100
CCNC(=O)N1CCN(c2ccnn3cc(-c4ccc([C@@H]5CCCN5C(C)C)nc4)cc23)CC1 [Compound 494] | < 10 | < 100
CCNC(=O)N1CCN(c2ccnn3cc(-c4ccc([C@@H]5CCN(C(C)C)C5)cn4)cc23)CC1 [Compound 495] | < 10 | < 100

From patent US10233186B2, “Inhibitors of activin receptor-like kinase” (BLUEPRINT MEDICINES CORPORATION, priority 2016, dated 2019)
